Measured values as given in ChEMBL document CHEMBL1201862, “PubChem BioAssay data set” (2004).
Each block holds one compound with its values, some of them ahead of it. Calls of active or inactive are those of the source.

Key:
[1] = target: Proto-oncogene tyrosine-protein kinase receptor Ret (Homo sapiens, UniProt P07949); format: functional;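 further: measured within a kinome-wide profiling panel, RET as the panel member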
Focal adhesion kinase 1 = Focal adhesion kinase 1 (Homo sapiens, UniProt Q05397); format: functional;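 further: measured as one member of a kinome panel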
Chain of Focal adhesion kinase 1 (Q05397 whole entry): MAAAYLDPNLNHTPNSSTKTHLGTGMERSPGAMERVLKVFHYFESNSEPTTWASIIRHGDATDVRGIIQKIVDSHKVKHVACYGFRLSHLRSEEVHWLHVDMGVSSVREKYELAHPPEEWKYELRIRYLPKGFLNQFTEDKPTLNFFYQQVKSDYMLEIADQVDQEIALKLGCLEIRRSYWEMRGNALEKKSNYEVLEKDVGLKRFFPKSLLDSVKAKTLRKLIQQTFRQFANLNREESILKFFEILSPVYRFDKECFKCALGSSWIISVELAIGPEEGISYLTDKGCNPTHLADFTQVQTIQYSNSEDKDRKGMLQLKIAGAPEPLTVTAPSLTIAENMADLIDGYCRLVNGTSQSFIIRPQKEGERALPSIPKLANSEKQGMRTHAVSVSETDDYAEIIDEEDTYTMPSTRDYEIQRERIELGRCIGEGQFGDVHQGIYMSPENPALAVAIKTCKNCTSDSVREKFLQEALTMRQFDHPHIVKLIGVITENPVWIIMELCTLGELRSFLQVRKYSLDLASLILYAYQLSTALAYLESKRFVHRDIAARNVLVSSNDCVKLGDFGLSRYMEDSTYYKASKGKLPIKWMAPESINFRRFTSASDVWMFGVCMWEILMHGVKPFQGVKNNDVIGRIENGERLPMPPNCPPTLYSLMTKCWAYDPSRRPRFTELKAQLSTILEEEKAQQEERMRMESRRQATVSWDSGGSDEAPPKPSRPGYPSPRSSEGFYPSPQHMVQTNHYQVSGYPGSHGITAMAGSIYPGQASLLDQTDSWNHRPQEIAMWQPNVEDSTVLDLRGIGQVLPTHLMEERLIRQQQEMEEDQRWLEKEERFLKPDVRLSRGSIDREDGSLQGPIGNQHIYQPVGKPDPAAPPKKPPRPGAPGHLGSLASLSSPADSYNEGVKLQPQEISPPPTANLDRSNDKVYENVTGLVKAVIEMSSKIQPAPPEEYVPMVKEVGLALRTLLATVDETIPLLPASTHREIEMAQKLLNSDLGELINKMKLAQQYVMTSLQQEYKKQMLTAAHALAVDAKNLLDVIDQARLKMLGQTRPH

[2] = viability of PTEN-deleted HCT116 cells – cell-based, HCT116 PTEN knockout, dose response (AID 1047); format: functional;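 further: HCT116 colon tumor cells with PTEN knocked out; cells exposed to compound for 60 hours before readout; potency for loss of cell viability measured by luminescence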
[3] = target: T1, Mannose-6-phosphate isomerase (Homo sapiens, UniProt P34949); experiment: MPI inhibition at elevated mannose 6-phosphate – biochemical, fluorescence intensity, high mannose 6-phosphate, primary screen (AID 1220)
T1 sequence (P34949 whole entry): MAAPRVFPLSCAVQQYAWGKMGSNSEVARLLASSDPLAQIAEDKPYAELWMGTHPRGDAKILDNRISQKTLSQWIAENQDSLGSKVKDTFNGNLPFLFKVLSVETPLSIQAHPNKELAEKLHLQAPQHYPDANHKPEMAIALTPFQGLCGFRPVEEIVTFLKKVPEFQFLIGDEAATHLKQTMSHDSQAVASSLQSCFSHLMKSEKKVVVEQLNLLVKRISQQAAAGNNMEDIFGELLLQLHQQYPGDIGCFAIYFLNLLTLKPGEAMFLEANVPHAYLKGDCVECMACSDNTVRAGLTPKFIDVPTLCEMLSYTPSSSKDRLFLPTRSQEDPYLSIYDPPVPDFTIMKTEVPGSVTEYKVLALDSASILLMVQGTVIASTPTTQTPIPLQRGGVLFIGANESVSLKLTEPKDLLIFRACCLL

[4] = target: T2, Sentrin-specific protease 8 (Homo sapiens, UniProt Q96LD8); format: functional
T2 sequence (Q96LD8 whole entry): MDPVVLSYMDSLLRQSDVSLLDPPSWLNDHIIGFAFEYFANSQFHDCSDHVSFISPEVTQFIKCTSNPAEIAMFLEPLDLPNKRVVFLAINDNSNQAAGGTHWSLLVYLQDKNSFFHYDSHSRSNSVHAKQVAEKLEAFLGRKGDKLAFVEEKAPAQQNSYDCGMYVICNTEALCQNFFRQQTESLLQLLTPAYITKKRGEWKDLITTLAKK

[5] = target: Serine/threonine-protein phosphatase PP1-alpha catalytic subunit (Homo sapiens, UniProt P62136); experiment: inhibition of protein phosphatase 1 activity – biochemical, fluorescence, dose response (AID 2394)
Chain of Serine/threonine-protein phosphatase PP1-alpha catalytic subunit (P62136 whole entry): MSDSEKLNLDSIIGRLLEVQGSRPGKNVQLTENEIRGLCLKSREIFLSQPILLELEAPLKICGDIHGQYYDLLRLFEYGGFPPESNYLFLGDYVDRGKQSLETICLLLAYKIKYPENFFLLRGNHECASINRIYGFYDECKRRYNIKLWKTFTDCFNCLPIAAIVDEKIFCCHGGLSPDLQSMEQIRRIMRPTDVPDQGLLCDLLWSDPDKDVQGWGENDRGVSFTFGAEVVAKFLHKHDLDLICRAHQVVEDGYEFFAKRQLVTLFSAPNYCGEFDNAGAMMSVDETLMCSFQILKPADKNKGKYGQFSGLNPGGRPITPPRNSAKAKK

[6] = target: T3, Polyadenylate-binding protein 1 (Homo sapiens, UniProt P11940); experiment: MLLE binding blockers, Cy5 peptide tracer – biochemical, fluorescence polarization, Cy5-PAM2 peptide, secondary, miRNA deadenylation inhibitor project, dose response (AID 602260); format: functional; details: read-out: IC50_Mean
T3 sequence (P11940 whole entry): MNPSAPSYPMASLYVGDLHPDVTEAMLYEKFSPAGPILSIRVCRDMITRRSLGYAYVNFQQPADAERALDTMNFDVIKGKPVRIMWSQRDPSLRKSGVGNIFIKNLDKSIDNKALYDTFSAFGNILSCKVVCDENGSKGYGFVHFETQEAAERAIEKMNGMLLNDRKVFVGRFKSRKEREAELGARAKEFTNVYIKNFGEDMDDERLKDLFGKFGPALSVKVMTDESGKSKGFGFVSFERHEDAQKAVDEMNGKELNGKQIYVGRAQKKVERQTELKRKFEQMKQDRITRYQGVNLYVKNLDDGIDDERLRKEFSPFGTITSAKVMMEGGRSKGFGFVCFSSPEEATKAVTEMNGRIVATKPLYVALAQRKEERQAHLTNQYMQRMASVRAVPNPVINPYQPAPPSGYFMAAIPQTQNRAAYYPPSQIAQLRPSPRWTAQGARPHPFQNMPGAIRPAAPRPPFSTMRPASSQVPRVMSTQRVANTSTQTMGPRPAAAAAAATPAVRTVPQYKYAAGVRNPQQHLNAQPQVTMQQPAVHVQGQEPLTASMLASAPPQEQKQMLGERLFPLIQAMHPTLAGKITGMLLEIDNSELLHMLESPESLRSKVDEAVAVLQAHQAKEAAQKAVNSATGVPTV

[7] = fluconazole-exposed Candida albicans growth modulators – fluorescence, retest, confirmation (AID 2467); format: functional, cell-based
ORF 73 = target: T4, ORF 73 (Human herpesvirus 8, UniProt O40947); experiment: KSHV LANA DNA-binding disruption – biochemical, fluorescence polarization, cherry-picked samples, dose response (AID 504725); set-up: species or system Human gammaherpesvirus 8;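 further: fluorescence polarization of a labeled DNA duplex reporting LANA DNA binding; potency is for inhibitors that block LANA binding to the DNA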
T4 sequence (O40947 whole entry): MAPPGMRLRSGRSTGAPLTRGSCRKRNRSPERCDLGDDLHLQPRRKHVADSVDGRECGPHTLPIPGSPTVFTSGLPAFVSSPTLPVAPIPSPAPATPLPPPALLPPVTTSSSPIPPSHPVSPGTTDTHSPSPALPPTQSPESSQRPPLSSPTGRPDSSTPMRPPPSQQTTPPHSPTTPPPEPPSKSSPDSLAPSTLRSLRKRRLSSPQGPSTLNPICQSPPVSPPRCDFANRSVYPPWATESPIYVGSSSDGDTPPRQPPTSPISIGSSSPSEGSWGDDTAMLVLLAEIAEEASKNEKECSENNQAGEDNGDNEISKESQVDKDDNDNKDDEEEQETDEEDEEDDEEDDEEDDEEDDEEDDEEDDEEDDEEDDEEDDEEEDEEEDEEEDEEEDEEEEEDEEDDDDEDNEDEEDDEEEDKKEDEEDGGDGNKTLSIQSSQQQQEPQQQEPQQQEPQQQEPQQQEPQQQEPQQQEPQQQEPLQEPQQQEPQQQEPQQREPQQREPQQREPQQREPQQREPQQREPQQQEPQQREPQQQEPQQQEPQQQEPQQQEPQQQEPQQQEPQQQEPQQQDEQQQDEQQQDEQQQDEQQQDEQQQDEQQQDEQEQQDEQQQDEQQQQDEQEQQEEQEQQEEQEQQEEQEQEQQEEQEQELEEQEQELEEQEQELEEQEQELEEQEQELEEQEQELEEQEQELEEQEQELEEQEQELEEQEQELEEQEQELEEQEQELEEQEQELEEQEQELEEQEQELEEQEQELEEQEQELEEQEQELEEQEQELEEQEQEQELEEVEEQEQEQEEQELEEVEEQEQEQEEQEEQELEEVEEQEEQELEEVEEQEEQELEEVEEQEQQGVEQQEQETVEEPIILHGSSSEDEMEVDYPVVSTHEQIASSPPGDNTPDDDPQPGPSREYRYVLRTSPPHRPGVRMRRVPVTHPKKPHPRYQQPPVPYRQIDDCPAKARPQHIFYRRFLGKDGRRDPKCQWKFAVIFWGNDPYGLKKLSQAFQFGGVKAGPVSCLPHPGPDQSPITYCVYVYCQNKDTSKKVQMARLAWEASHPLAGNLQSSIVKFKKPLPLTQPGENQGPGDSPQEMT

Estrogen receptor = target: T5, Estrogen receptor (Homo sapiens, UniProt P03372);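 further: potency for inhibiting coactivator peptide recruitment to the receptor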
T5 sequence (P03372 whole entry): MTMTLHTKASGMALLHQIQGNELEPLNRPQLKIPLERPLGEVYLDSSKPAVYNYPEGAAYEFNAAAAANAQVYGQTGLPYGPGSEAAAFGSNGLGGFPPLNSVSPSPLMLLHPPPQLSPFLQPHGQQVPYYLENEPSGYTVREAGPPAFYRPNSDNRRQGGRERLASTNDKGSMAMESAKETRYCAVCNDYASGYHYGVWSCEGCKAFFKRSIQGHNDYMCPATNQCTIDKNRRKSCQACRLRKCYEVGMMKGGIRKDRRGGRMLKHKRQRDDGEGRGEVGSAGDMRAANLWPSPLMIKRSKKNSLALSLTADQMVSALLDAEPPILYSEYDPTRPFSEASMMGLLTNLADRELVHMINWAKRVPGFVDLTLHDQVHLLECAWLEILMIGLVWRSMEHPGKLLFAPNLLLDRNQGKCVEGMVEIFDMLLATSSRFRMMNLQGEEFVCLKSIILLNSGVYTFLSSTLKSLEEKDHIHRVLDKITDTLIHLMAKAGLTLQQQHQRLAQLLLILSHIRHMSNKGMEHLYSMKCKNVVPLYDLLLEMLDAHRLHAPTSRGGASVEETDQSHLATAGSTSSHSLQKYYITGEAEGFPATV

[8] = target: T3, Polyadenylate-binding protein 1; experiment: MLLE domain peptide-binding blockers, IC50 – biochemical, fluorescence polarization, FITC-PAM2 peptide, dose response (AID 602259); format: functional; details: read-out: IC50_Mean
[9] = NIH-3T3 fibroblast cytotoxicity, dose response, cytotoxicity control, cell-based, fluorescence, Alamar Blue, secondary assay (AID 2327); format: functional;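 further: NIH-3T3 mouse fibroblasts cultured with fluconazole at 8 µg/mL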

Chain of Proto-oncogene tyrosine-protein kinase receptor Ret (P07949 whole entry): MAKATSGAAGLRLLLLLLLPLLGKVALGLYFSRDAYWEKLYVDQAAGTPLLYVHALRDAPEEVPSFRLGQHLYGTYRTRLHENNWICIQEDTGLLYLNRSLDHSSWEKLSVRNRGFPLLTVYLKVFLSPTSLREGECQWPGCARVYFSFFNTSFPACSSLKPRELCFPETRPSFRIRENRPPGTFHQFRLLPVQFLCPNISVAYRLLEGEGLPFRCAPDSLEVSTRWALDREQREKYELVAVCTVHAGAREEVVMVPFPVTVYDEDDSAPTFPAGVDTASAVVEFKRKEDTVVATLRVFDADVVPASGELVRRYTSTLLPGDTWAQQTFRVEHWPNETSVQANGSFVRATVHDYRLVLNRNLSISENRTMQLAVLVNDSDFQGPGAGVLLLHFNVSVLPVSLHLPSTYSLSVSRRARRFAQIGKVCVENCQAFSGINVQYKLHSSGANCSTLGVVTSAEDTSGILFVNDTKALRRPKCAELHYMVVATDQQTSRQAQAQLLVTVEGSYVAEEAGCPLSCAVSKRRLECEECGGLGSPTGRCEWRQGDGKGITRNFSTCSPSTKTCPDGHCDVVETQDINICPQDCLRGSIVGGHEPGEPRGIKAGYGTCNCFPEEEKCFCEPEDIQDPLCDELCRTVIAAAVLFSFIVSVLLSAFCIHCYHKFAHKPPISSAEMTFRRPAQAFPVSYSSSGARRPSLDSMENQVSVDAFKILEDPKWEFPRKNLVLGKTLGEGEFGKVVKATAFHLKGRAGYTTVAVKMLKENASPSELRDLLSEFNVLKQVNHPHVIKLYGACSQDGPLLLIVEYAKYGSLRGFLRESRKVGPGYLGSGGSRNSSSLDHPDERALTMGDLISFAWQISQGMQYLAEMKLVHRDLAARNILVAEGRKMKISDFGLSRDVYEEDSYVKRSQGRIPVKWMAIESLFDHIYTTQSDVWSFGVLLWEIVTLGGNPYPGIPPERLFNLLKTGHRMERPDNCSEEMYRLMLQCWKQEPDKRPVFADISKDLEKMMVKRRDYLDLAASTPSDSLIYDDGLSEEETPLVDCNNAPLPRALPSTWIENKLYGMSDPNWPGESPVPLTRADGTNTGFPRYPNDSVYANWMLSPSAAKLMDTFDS

Ki [1]: 0.00501 µM (active)
Ki (Focal adhesion kinase 1): 2 µM (active)
SMILES: NC(COc1cncc(-c2ccc3c(c2)C(=Cc2ccc[nH]2)C(=O)N3)c1)Cc1ccccc1 (configuration not stated)

SMILES: CCN(CC)CCOc1ccc2c(c1)C(=NNC(=O)c1ccccn1)c1cc(OCCN(CC)CC)ccc1-2
EC50 [2]: 3.25 µM (active)

IC50 [3]: > 50 µM (not active)
IC50 [5]: > 67 µM (not active)
SMILES: CN(C)c1cc(N/N=C\c2ccccc2)nc(N(C)C)n1
IC50 [4]: 0.368 µM (active)

SMILES: O=C(O)c1ccc2c(c1)[C@@H]1C=CC[C@@H]1[C@H](c1ccccn1)N2
IC50 [6]: > 66 µM (inactive)
EC50 [7]: > 38 µM (not active)
AC50 (ORF 73): 21.7 µM (active)
IC50 (Estrogen receptor): 9.53 µM (active)
IC50 [8]: 53.3 µM (inactive)
EC50 [9]: > 150 µM (inactive)
